Results: patent US20210101899A1, “INHIBITORS OF MUTANT ISOCITRATE DEHYDROGENASES AND COMPOSITIONS AND METHODS THEREOF” (IsoCure Biosciences Inc., priority 2016, published 2021)

Key:
Format in all cases: biochemical
IDH1 (R132C) = IDH1 (R132C) (Homo sapiens, UniProt O75874, R132C); experiment: IDH enzyme assay, NADPH depletion by diaphorase/resazurin coupled detection; details: pre-incubated with enzyme for 1 h at room temperature; 500 μM a-Ketoglutarate+15 μM NADPH; 10-dose, 3-fold dilution from 10 μM; read-out: Compound IC50 (nM) IDH1 (R132C)
Chain of IDH1 (R132C) (O75874 whole entry R132C): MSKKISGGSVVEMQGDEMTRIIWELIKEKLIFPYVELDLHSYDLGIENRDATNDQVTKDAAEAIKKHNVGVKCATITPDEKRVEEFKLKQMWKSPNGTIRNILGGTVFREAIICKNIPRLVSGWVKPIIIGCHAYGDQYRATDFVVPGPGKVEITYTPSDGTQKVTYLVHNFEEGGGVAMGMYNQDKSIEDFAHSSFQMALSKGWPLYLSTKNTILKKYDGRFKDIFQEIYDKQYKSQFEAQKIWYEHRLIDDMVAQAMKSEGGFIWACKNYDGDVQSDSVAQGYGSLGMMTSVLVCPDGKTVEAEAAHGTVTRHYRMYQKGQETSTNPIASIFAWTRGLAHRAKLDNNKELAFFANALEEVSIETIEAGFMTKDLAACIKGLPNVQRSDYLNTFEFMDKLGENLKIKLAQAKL
Procedure: (§1) Compounds were tested against 3 enzymes, as provided below. Compounds were tested in 10-dose IC50 mode with 3-fold serial dilution at a starting concentration of 10 μM. Control Compounds were tested in 10-dose IC50 mode with 3-fold serial dilution starting at 1 mM or 10 mM. Assay Format: The production or depletion of NADPH by IDH enzymes was measured by diaphorase/resazurin coupled detection. Fluorescence measurement: Ex/Em=535/590 by EnVision. Compounds were pre-incubated with enzyme for 1 h at room temperature. Standard substrate: 1500 μM a-Ketoglutarate+15 μM NADPH for IDH1 (R132H). 500 μM a-Ketoglutarate+15 μM NADPH for IDH1 (R132C). 65 μM Isocitrate+50 μM NADP for IDH1.

IDH1 (R132H) = IDH1 (R132H) (Homo sapiens, UniProt O75874, R132H); experiment: as above; details: pre-incubated with enzyme for 1 h at room temperature; 1500 μM a-Ketoglutarate+15 μM NADPH; 10-dose, 3-fold dilution from 10 μM; read-out: Compound IC50 (nM) IDH1 (R132H)
Chain of IDH1 (R132H) (O75874 whole entry R132H): as the sequence (O75874 whole entry R132C) above, with C132H counted along it
Procedure: as §1

IDH1 = IDH1 (Homo sapiens, UniProt O75874); experiment: IDH enzyme assay, NADPH production by diaphorase/resazurin coupled detection; details: IDH1 WT; pre-incubated with enzyme for 1 h at room temperature; 65 μM Isocitrate+50 μM NADP; 10-dose, 3-fold dilution from 10 μM; read-out: Compound IC50 (nM) IDH1
Chain of IDH1 (O75874 whole entry): as the sequence (O75874 whole entry R132C) above, with C132R counted along it
Procedure: as §1

Structure (SMILES) | IC50 (IDH1 (R132C)) [nM] | IC50 (IDH1 (R132H)) [nM] | IC50 (IDH1) [nM]
CC1CN(C(=O)c2ccc[nH]2)Cc2c(C(=O)Nc3cccc(NC(=O)CCl)c3)nn(Cc3ccc(F)cc3)c21 (stereo not drawn) [ISO-2-5, N-(3-(2-chloroacetamido)phenyl)-1-(4-fluorobenzyl)-7-methyl-5-(1H-pyrrole-2-carbonyl)-4,5,6,7-tetrahydro-1H-pyrazolo [4,3-c]pyridine-3-carboxamide] | 2 | 3 | > 10000
C=CC(=O)NCc1cc(Cn2nc(C(=O)Nc3cccc(C)c3)c3c2C(C)CN(C(=O)c2ccc[nH]2)C3)ccc1F (stereo not drawn) [ISO-2-2, 1-(3-(acrylamidomethyl)-4-fluorobenzyl)-7-methyl-5-(1H-pyrrole-2-carbonyl)-N-(m-tolyl)-4,5,6,7-tetrahydro-1H-pyrazolo[4,3-c]pyridine-3-carboxamide] | 152 | 33 | > 10000
